Measured values from paper doi:10.1101/2020.06.07.139295v2 (biorxiv, 2020).
Where a chain is given by its changes, count along the chain named.

What was measured:
TTLL6 (51-502) [1] = molecular target: T1, TTLL6 (51-502) (Mus musculus, UniProt A4Q9E8); test: [3H]-glutamate transfer to taxol-stabilized brain microtubules, filter assay; type: biochemical
T1 sequence (A4Q9E8 51-502): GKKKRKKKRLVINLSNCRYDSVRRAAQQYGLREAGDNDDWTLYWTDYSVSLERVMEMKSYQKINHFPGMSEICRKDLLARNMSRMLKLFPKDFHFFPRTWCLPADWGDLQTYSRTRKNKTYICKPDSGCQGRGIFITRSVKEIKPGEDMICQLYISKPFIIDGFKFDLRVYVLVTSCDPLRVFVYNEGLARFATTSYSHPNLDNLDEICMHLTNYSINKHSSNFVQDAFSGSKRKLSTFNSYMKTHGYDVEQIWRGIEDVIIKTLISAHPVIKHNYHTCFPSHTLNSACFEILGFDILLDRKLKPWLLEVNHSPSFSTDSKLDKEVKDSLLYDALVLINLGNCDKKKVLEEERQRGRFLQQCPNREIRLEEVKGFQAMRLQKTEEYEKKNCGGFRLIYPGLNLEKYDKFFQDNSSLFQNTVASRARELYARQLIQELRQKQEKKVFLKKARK

TTLL6 (51-502) [2] = molecular target: T2, TTLL6 (51-502) (Mus musculus, UniProt A4Q9E8, C179A/H362I/Q180R); test: as above; type: biochemical
T2 sequence (A4Q9E8 51-502 C179A/Q180R/H362I): T1 sequence (A4Q9E8 51-502) with C129A, Q130R, H312I

CCNC(=O)[C@H](CCP(=O)(O)CC(CCC(=O)O)C(=O)O)NC(C)=O (mixture of isomers) [initiation analog]
IC50 (TTLL6 (51-502) [1]): 6.1 µM
IC50 (TTLL6 (51-502) [2]): 3.5 ± 0.2 µM

CC(=O)N[C@@H](CCP(=O)(O)CC(CCC(=O)O)C(=O)O)C(=O)O (mixture of isomers) [γ-elongation analog]
IC50 (TTLL6 (51-502) [1]): ~6 µM
IC50 (TTLL6 (51-502) [2]): 2.5 ± 0.1 µM

CC(=O)NC(CCC(=O)O)P(=O)(O)CC(CCC(=O)O)C(=O)O (mixture of isomers) [α-elongation analog]
IC50 (TTLL6 (51-502) [1]): 0.6 ± 0.05 µM
IC50 (TTLL6 (51-502) [2]): 5.4 ± 0.8 µM
